Reference: the NIST ThermoML archive (doi:10.1021/je900387e)

Assay: xn = mol fraction of the nth substance listed
Conditions: Liquid, Pycnometric method

CCCCBr [1-bromobutane] + O=C=O
Conditions | mass density [kg/m3]
337.4 K, 10260 kPa, x1 = 0.0461 | 482
337.4 K, 10290 kPa, x1 = 0.0989 | 717
337.4 K, 10310 kPa, x1 = 0.1495 | 879
337.4 K, 10340 kPa, x1 = 0.0461 | 492
337.4 K, 10360 kPa, x1 = 0.0989 | 722
337.4 K, 10430 kPa, x1 = 0.0461 | 502
337.4 K, 10430 kPa, x1 = 0.1495 | 881
337.4 K, 10440 kPa, x1 = 0.0989 | 726
337.4 K, 10520 kPa, x1 = 0.0989 | 730
337.4 K, 10540 kPa, x1 = 0.0461 | 513
337.4 K, 10580 kPa, x1 = 0.1495 | 884
337.4 K, 10590 kPa, x1 = 0.0989 | 735
337.4 K, 10660 kPa, x1 = 0.0461 | 524
337.4 K, 10690 kPa, x1 = 0.0989 | 739
337.4 K, 10690 kPa, x1 = 0.1495 | 887
337.4 K, 10790 kPa, x1 = 0.0461 | 537
337.4 K, 10790 kPa, x1 = 0.0989 | 743
337.4 K, 10810 kPa, x1 = 0.1495 | 889
337.4 K, 10890 kPa, x1 = 0.0989 | 748
337.4 K, 10910 kPa, x1 = 0.0461 | 549
337.4 K, 10970 kPa, x1 = 0.1495 | 893
337.4 K, 10990 kPa, x1 = 0.0989 | 752
337.4 K, 11060 kPa, x1 = 0.0461 | 563
337.4 K, 11100 kPa, x1 = 0.1495 | 895
337.4 K, 11130 kPa, x1 = 0.0989 | 757
337.4 K, 11230 kPa, x1 = 0.0461 | 577
337.4 K, 11240 kPa, x1 = 0.0989 | 762
337.4 K, 11250 kPa, x1 = 0.1495 | 898
337.4 K, 11370 kPa, x1 = 0.0461 | 588
337.4 K, 11370 kPa, x1 = 0.0989 | 766
337.4 K, 11420 kPa, x1 = 0.1495 | 901
337.4 K, 11510 kPa, x1 = 0.0461 | 599
337.4 K, 11520 kPa, x1 = 0.0989 | 771
337.4 K, 11580 kPa, x1 = 0.1495 | 904
337.4 K, 11680 kPa, x1 = 0.0461 | 611
337.4 K, 11680 kPa, x1 = 0.0989 | 776
337.4 K, 11740 kPa, x1 = 0.1495 | 906
337.4 K, 11830 kPa, x1 = 0.0989 | 781
337.4 K, 11860 kPa, x1 = 0.0461 | 623
337.4 K, 11920 kPa, x1 = 0.1495 | 909
337.4 K, 12010 kPa, x1 = 0.0989 | 786
337.4 K, 12070 kPa, x1 = 0.1495 | 912
337.4 K, 12080 kPa, x1 = 0.0461 | 636
337.4 K, 12200 kPa, x1 = 0.0989 | 791
337.4 K, 12280 kPa, x1 = 0.1495 | 915
337.4 K, 12320 kPa, x1 = 0.0461 | 649
337.4 K, 12390 kPa, x1 = 0.0989 | 796
337.4 K, 12490 kPa, x1 = 0.1495 | 918
337.4 K, 12580 kPa, x1 = 0.0461 | 663
337.4 K, 12620 kPa, x1 = 0.0989 | 801
337.4 K, 12680 kPa, x1 = 0.1495 | 921
337.4 K, 12850 kPa, x1 = 0.0989 | 806
337.4 K, 12890 kPa, x1 = 0.1495 | 924
337.4 K, 12910 kPa, x1 = 0.0461 | 674
337.4 K, 13110 kPa, x1 = 0.0989 | 812
337.4 K, 13130 kPa, x1 = 0.1495 | 927
337.4 K, 13260 kPa, x1 = 0.0461 | 693
337.4 K, 13320 kPa, x1 = 0.1495 | 930
337.4 K, 13360 kPa, x1 = 0.0989 | 817
337.4 K, 13530 kPa, x1 = 0.0461 | 703
337.4 K, 13550 kPa, x1 = 0.1495 | 933
337.4 K, 13650 kPa, x1 = 0.0989 | 822
337.4 K, 13770 kPa, x1 = 0.1495 | 936
337.4 K, 13920 kPa, x1 = 0.0989 | 828
337.4 K, 14020 kPa, x1 = 0.1495 | 939
337.4 K, 14220 kPa, x1 = 0.0989 | 833
337.4 K, 14300 kPa, x1 = 0.1495 | 942
337.4 K, 14530 kPa, x1 = 0.1495 | 945
337.4 K, 14570 kPa, x1 = 0.0989 | 839
337.4 K, 14750 kPa, x1 = 0.1495 | 948
337.4 K, 14880 kPa, x1 = 0.0989 | 844
337.4 K, 15050 kPa, x1 = 0.1495 | 951
337.4 K, 15220 kPa, x1 = 0.0989 | 850
337.9 K, 9120 kPa, x1 = 0.0245 | 280
337.9 K, 9150 kPa, x1 = 0.0245 | 283
337.9 K, 9220 kPa, x1 = 0.0245 | 288
337.9 K, 9290 kPa, x1 = 0.0245 | 292
337.9 K, 9370 kPa, x1 = 0.0245 | 297
337.9 K, 9440 kPa, x1 = 0.0245 | 303
337.9 K, 9520 kPa, x1 = 0.0245 | 308
337.9 K, 9600 kPa, x1 = 0.0245 | 314
337.9 K, 9680 kPa, x1 = 0.0245 | 320
337.9 K, 9750 kPa, x1 = 0.0245 | 325
337.9 K, 9830 kPa, x1 = 0.0245 | 331
337.9 K, 9920 kPa, x1 = 0.0245 | 338
337.9 K, 10000 kPa, x1 = 0.0245 | 345
337.9 K, 10080 kPa, x1 = 0.0245 | 352
337.9 K, 10180 kPa, x1 = 0.0245 | 359
337.9 K, 10270 kPa, x1 = 0.0245 | 367
337.9 K, 10360 kPa, x1 = 0.0245 | 375
337.9 K, 10450 kPa, x1 = 0.0245 | 383
337.9 K, 10560 kPa, x1 = 0.0245 | 391
337.9 K, 10620 kPa, x1 = 0.0245 | 397
337.9 K, 10630 kPa, x1 = 0.0245 | 399
